Reference: PMC4149238, “Systemic delivery of P42 peptide: a new weapon to fight Huntington’s disease” (Acta Neuropathologica Communications, 2014)
Residues, ends and D or L forms follow the SMILES beside them. *: point of attachment. 5TAMRA = CN(C)c1ccc2c(c1)Oc1cc(N(C)C)ccc1C21OC(=O)c2cc(C(=O)*)ccc21

Columns and labels:
[1] = tested on: GFP-hHtt^171aa-Q136 aggregation; assay: polyQ-hHtt aggregation in transfected HeLa cells (microscopy); type: cell-based, human; details: HeLa cells co-transfected with GFP-hHtt171aa-Q136 and vector expressing Cherry-tagged peptide, vs empty vector
Protocol: (§1) HeLa cells were grown and maintained in DMEM medium (Gibco) supplemented with 10% fetal calf serum and glutamine. HeLa cells were grown in 6 well plates, and pDdest53-GFP-hHtt^171aa-136Q (0.75 μg) was transfected with JetPei reagent (Qbiogene). Equal amounts of pcDNA-Cherry-P42 or control vector were added for each transfection to level the total amount of plasmid DNA. To test the internalization of exogenous peptide, synthesized TAMRA-P42-TAT was added at the same time as pDest53-GFP-hHtt^171aa-Q136 transfection, at different concentrations (0, 0.5, 1, 5, 10 or 20 μM). Cells were incubated with plasmid and peptide for 12 h. Then the medium was washed twice with PBS, the cells trypsinized, and grown on a coverslip with new DMEM medium for 6 h. This step was necessary to eliminate the peptide that crystallizes on the well. Eventually, cells were fixed with 4% paraformaldehyde and immunostained for microscopic analysis. To observe the internalization of the peptide TAMRA-P42-TAT, the signal was amplified by anti-TAMRA immunostaining (1:500- Invitrogen). Nuclei were counterstained with DAPI (4′, 6 diamino-2-phenylindole). The pictures were taken with a confocal laser scanning microscope model LSM780 (Carl Zeiss).

[2] = tested on: flies expressing hHtt exon1 with expanded polyQ; details: cited from earlier work
Excerpt: Most research undertaken to find a cure for HD focus on the mutated allele (trying to reduce its expression), or on the polyQ stretch that is responsible for aggregation, but that is also present in other neurodegenerative diseases. Our approach is based on the observation that the ratio between normal and mutant Huntingtin is a crucial factor in the onset and progression of the disease. In a previous work, we confirmed the protective role of wild-type N-terminus Htt. We further screened human hHtt, for peptides able to prevent polyQ-hHtt aggregation i ... || The efficient rescue supported by P42 administration represents one of the best therapeutic effects described so far. Therapeutic research currently targets mutant Htt at transcriptional or post-translational level. The recent works in RNA interference or ASO strategies attempt to reduce the expression of the mutant transcript. Despite recent progress, the limitation of this approach lays in the effects on the wild-type allele and the aggravation of the loss of function effects. Biochemical molecules and intrabodies have also been designed against the protein, in order to target abnorma ...

[3] = tested on: brain of wild-type C57BL/6 J mice; assay: Brain targeting after buccal/rectal NP42T (MALDI Imaging Mass Spectrometry); type: in vivo, mouse; details: NP42T 210 μg, four buccal and four rectal administrations, 3 h, MALDI IMS, two mice
Protocol: For MALDI analysis, wild-type C57BL/6 J mice have been injected either by ICV (2.1 μg), or treated with empty NP, or with NP42T (210 μg) microemulsions. For NP and NP42T, four buccal and four rectal administrations (1 ml/kg) have been performed, spaced by 30 minutes to ensure mucosa internalization. Two mice have been treated for each condition and sacrificed 3 h after the injections.
Tissue preparation and MALDI imaging analysis: Frozen brain sections were cut in 15 μm slices using an HM 550 OVPD cryostat (Fisher Scientific, Illkirch, France), set at −20°C, mounted on ITO coated conductive glass slides and allowed to thaw and desiccate in a vacuum desiccator. Tissue sections were then coated manually with a 10 mg/ml α-cyano-4-hydroxycinnamic acid dissolved in 50% acetonitrile (ACN) and 0.1% trifluoroacetic acid (TFA).
MALDI imaging was performed using the 4800 Plus MALDI TOF/TOF^TM Analyzer (AB Sciex). Image acquisition was achieved using the 4800 imaging tool software (MSI imaging). […]
The two dimensional ion image of the tissue section was analyzed using Tissue View^TM software (Applied Biosystems/MDS analytical technologies). A colour scale representing signal intensity is exported from Tissue View^TM software to provide semi quantitative information.

wild-type mice = assay: Tolerability in NP42T-treated wild-type mice; type: in vivo, mouse; details: week 2 to 11
Protocol: For animal experimentation, a cohort of 30 females was divided into four groups (WT treated with empty NP (n = 5); WT treated with NP42T (n = 8); R6/2 treated with empty NP (n = 8); R6/2 treated with NP42T (n = 9)). Administrations were performed five days a week, at the same time of the day, starting in 2-week-old mice. The treatment was performed until the mice were sacrificed (at week 11). NP42T peptide (600 μg/ml/kg) was administrated twice a day per mucosa, with two buccal injections until the mice were 4 week old, and via rectal and buccal injections for older animals older.

[4] = mice brain soluble extract, 15 μg peptide, incubation 0, 1, 3 and 6 h, MALDI-MS
Excerpt: MALDI MS and MS/MS analysis: Spectra acquisition has been performed using the 4800 Plus MALDI TOF/TOF^TM mass spectrometer (ABSciex) controlled by the 4000 Series Explorer^TM. MS spectra were acquired in a reflector positive mode (mass range: m/z 700–4000, laser intensity set at 50% and 3000 total laser shots per spectrum, MS resolution ≥ 12000–17000). MS/MS precursor was selected manually with an absolute mass window of 1 Da and each MS/MS spectrum is the result of 1000 total laser shots with a laser intensity set at 50% and a MS/MS resolution ≥ 2000–5000. The fragmentation was performed at collision energy of 2 kV and a collision air pressure set at 10^−6 Torr.

HeLa cells [5] = assay: Internalization of exogenous peptide into HeLa cells; type: cell-based, human; details: synthetic TAMRA end-labelled peptide in culture medium, anti-TAMRA immunostaining, confocal
Protocol: as §1

HeLa cells [6] = assay: MTT test of HeLa cell survival; type: cell-based, human; details: large excess of peptide, data not shown
[7] = tested on: brain of wild-type C57BL/6 J mice; assay: Brain distribution of TAMRA-P42-TAT after ICV injection; type: in vivo, mouse
Protocol: To test the stability of the peptide in the brain, single intracerebroventricular (ICV) injection of peptides was performed in the right ventricle of C57BL/6 mice as described in [15]. 5 μg or 1 μg of TAMRA-P42-TAT were stereotaxically injected into the right lateral ventricle (coordinates 1 mm right lateral to bregma and 3 mm ventral to the skull surface) of C57BL/6 J mice using a 10 μl Hamilton syringe at a rate of 0.2 μl to 1 μl/min. As a control, saline was injected in the same volume and at the same rate. […]
TAMRA-P42-TAT injected mice were also immunostained with rabbit monoclonal anti-DARPP32 (MAb2306 - Cell Signaling Technology - 1: 1600), secondary detected by Alexa 488 anti-rabbit (1: 2000) to label the striatum, and with mouse monoclonal anti-NeuN (MAB377 – Millipore - 1: 1000), secondary detected by Dye light blue anti-mouse (1: 500), as a neuronal marker.

Molecule: P42: 23aa peptide lying in the N-terminus (position 480–502 aa) of normal human Htt
- rescue of GFP-Htt^171aa-Q136 aggregation [1]: completely rescue
- eye degeneration of flies expressing hHtt exon1 with expanded polyQ ([2]; Drosophila model of HD): able to prevent eye degeneration
- effects on lifespan [2]: partial

Molecule: CC[C@H](C)[C@H](NC(=O)[C@H](CC(=O)O)NC(=O)[C@H](Cc1c[nH]cn1)NC(=O)CNC(=O)[C@H](C)NC(=O)[C@H](CO)NC(=O)CN)C(=O)N[C@H](C(=O)N[C@H](C(=O)N[C@@H](CCC(=O)O)C(=O)N[C@@H](CCC(N)=O)C(=O)N1CCC[C@H]1C(=O)N[C@@H](CCCNC(=N)N)C(=O)N[C@@H](CO)C(=O)NCC(=O)NCC(=O)N[C@@H](Cc1ccc(O)cc1)C(=O)NCC(=O)O)[C@@H](C)O)[C@@H](C)CC [m/z 1801.84 derivative] (H-GSAGHDIITEQPRSGGYG-OH)
- presence in the brain after Aonys administration [3]: still present in the brain

Molecule: CC[C@H](C)[C@H](NC(=O)[C@H](CC(=O)O)NC(=O)[C@H](Cc1c[nH]cn1)NC(=O)CNC(=O)[C@H](C)NC(=O)[C@H](CO)NC(=O)CNC(=O)[C@@H]1CCCN1C(=O)[C@@H](NC(=O)[C@H](CO)NC(=O)[C@@H](NC(=O)CNC(=O)[C@H](CO)NC(=O)[C@H](CO)NC(=O)[C@H](C)NC(=O)[C@H](C)N)C(C)C)[C@@H](C)O)C(=O)N[C@H](C(=O)N[C@H](C(=O)N[C@@H](CCC(=O)O)C(=O)N[C@@H](CCC(N)=O)C(=O)N1CCC[C@H]1C(=O)N[C@@H](CCCNC(=N)N)C(=O)N[C@@H](CO)C(=O)NCC(=O)NCC(=O)N[C@@H](Cc1ccc(O)cc1)C(=O)NCC(=O)N[C@@H](CCCNC(=N)N)C(=O)N[C@@H](CCCCN)C(=O)N[C@@H](CCCCN)C(=O)N[C@@H](CCCNC(=N)N)C(=O)N[C@@H](CCCNC(=N)N)C(=O)N[C@@H](CCC(N)=O)C(=O)N[C@@H](CCCNC(=N)N)C(=O)N[C@@H](CCCNC(=N)N)C(=O)N[C@@H](CCCNC(=N)N)C(=O)O)[C@@H](C)O)[C@@H](C)CC [P42-TAT] (H-AASSGVSTPGSAGHDIITEQPRSGGYGRKKRRQRRR-OH)
- presence in the brain after Aonys administration [3]: able to reach the brain
- toxicity noticed during the study (wild-type mice): no toxicity
- time until full length peptide was degraded [4]: ≤ 1 h

Molecule: CC[C@H](C)[C@H](NC(=O)[C@H](CC(=O)O)NC(=O)[C@H](Cc1c[nH]cn1)NC(=O)CNC(=O)[C@H](C)NC(=O)[C@H](CO)NC(=O)CNC(=O)[C@@H]1CCCN1C(=O)[C@@H](NC(=O)[C@H](CO)NC(=O)[C@@H](NC(=O)CNC(=O)[C@H](CO)NC(=O)[C@H](CO)NC(=O)[C@H](C)NC(=O)[C@H](C)NC(=O)c1ccc2c(c1)C(=O)OC21c2ccc(N(C)C)cc2Oc2cc(N(C)C)ccc21)C(C)C)[C@@H](C)O)C(=O)N[C@H](C(=O)N[C@H](C(=O)N[C@@H](CCC(=O)O)C(=O)N[C@@H](CCC(N)=O)C(=O)N1CCC[C@H]1C(=O)N[C@@H](CCCNC(=N)N)C(=O)N[C@@H](CO)C(=O)NCC(=O)NCC(=O)N[C@@H](Cc1ccc(O)cc1)C(=O)NCC(=O)N[C@@H](CCCNC(=N)N)C(=O)N[C@@H](CCCCN)C(=O)N[C@@H](CCCCN)C(=O)N[C@@H](CCCNC(=N)N)C(=O)N[C@@H](CCCNC(=N)N)C(=O)N[C@@H](CCC(N)=O)C(=O)N[C@@H](CCCNC(=N)N)C(=O)N[C@@H](CCCNC(=N)N)C(=O)N[C@@H](CCCNC(=N)N)C(=O)O)[C@@H](C)O)[C@@H](C)CC [TAMRA-P42-TAT] (5TAMRA-AASSGVSTPGSAGHDIITEQPRSGGYGRKKRRQRRR-OH; N-terminus and C-terminus assumed)
- uptake into cultured cells (HeLa cells [5]): taken up by almost all the cells
- IC50 on HeLa cell survival (MTT test) (HeLa cells [6]): could not be measured
- detection in brain 24 hrs after ICV injection ([7]; C57BL/6 J mice, ICV 5 μg or 1 μg, 24 hrs, data not shown, n = 12): still detected
- distribution in the striatum after ICV injection ([7]; wild-type C57BL/6 J mice, ICV, sacrificed 3 hours after injection, TAMRA signal, DARPP32/NeuN co-staining): largely diffusing within the neurons
